In ChEMBL document CHEMBL4219183, “Novel purine benzimidazoles as antimicrobial agents by regulating ROS generation and targeting clinically resistant Staphylococcus aureus DNA groove” (Bioorg Med Chem Lett, 2018):
Values after ≈ are worked out from the molar mass of the structure shown. Active and inactive are the calls of the source. The calls are words filed in the database; no cut-off is given here.

How the values were obtained:
DNA [1] = assay: Binding affinity to Staphylococcus aureus genomic DNA at pH 7.4 at 304 K by fluorescence quenching analysis; assay type: nucleic-acid assay
Candida albicans [2] = assay: Antifungal activity against Candida albicans after 24 hrs by two fold serial dilution method; assay type: functional
[3] = Cytotoxicity against human A549 cells assessed as cell viability at <500 ug/ml after 48 hrs by MTT assay relative to control; assay type: cell-based; conditions: read-out: Activity
DNA [4] = assay: Binding affinity to Staphylococcus aureus genomic DNA assessed as modified Stern-Volmer quenching constant at pH 7.4 at 304 K by fluorescence quenching analysis; assay type: nucleic-acid assay
DNA [5] = assay: Binding affinity to Staphylococcus aureus genomic DNA assessed as modified Stern-Volmer quenching constant at pH 7.4 at 314 K by fluorescence quenching analysis; assay type: nucleic-acid assay
Candida parapsilosis = assay: Antifungal activity against Candida parapsilosis ATCC 22019 after 24 hrs by two fold serial dilution method; assay type: functional; conditions: ATCC 22019, 24 h
Klebsiella pneumoniae = assay: Antibacterial activity against Klebsiella pneumoniae after 24 hrs by two fold serial dilution method; assay type: functional
DNA [6] = assay: Binding affinity to Staphylococcus aureus genomic DNA assessed as gibbs free energy change at 314 K; assay type: nucleic-acid assay
Staphylococcus aureus [7] = assay: Antibacterial activity against Staphylococcus aureus after 24 hrs by two fold serial dilution method; assay type: functional
DNA [8] = assay: Binding affinity to Staphylococcus aureus genomic DNA assessed as gibbs free energy change at 304 K; assay type: nucleic-acid assay
DNA [9] = assay: Binding affinity to Staphylococcus aureus genomic DNA assessed as iodide quenching constant at pH 7.4 by fluorescence quenching analysis (reference value: 28.74 L/mol); assay type: nucleic-acid assay
Aspergillus fumigatus = assay: Antifungal activity against Aspergillus fumigatus after 24 hrs by two fold serial dilution method; assay type: functional
DNA [10] = assay: Binding affinity to Staphylococcus aureus genomic DNA at pH 7.4 at 314 K by fluorescence quenching analysis; assay type: nucleic-acid assay
Escherichia coli [11] = assay: Antibacterial activity against Escherichia coli after 24 hrs by two fold serial dilution method; assay type: functional
DNA [12] = assay: Binding affinity to Staphylococcus aureus genomic DNA assessed as hyperchromic shift at 2.5 to 20 x 10^-6mol/L by UV absorption spectral analysis; assay type: nucleic-acid assay
DNA [13] = assay: Binding affinity to Staphylococcus aureus genomic DNA by UV absorption spectral analysis; assay type: nucleic-acid assay
Acinetobacter baumannii = assay: Antibacterial activity against Acinetobacter baumannii after 24 hrs by two fold serial dilution method; assay type: functional
Staphylococcus aureus [14] = assay: Antibacterial activity against Staphylococcus aureus ATCC 25923 after 24 hrs by two fold serial dilution method; assay type: functional; conditions: ATCC 25923, 24 h
Staphylococcus aureus [15] = assay: Antibacterial activity against Staphylococcus aureus ATCC 29213 after 24 hrs by two fold serial dilution method; assay type: functional; conditions: ATCC 29213, 24 h
HeLa = assay: Induction of ROS generation in human HeLa cells at 6.25 to 50 uM by DCFH-DA staining based fluorescence microscopic method; assay type: cell-based
Staphylococcus aureus [16] = assay: Potency index, ratio of norfloxacin MIC to compound MIC for Staphylococcus aureus; assay type: functional
Escherichia coli [17] = assay: Antibacterial activity against Escherichia coli ATCC 25922 after 24 hrs by two fold serial dilution method; assay type: functional; conditions: ATCC 25922, 24 h
DNA [18] = assay: Inhibition of neutral red binding to Staphylococcus aureus genomic DNA up to 20 x 10^-6mol/L by UV absorption spectral analysis; assay type: nucleic-acid assay
DNA [19] = assay: Binding affinity to Staphylococcus aureus genomic DNA assessed as modified Stern-Volmer quenching constant at pH 7.4 at 294 K by fluorescence quenching analysis; assay type: nucleic-acid assay
Candida albicans [20] = assay: Antifungal activity against Candida albicans ATCC 90023 after 24 hrs by two fold serial dilution method; assay type: functional; conditions: ATCC 90023, 24 h
Enterococcus faecalis = assay: Antibacterial activity against Enterococcus faecalis after 24 hrs by two fold serial dilution method; assay type: functional
DNA [21] = assay: Binding affinity to Staphylococcus aureus genomic DNA assessed as change in enthalpy at 304 K; assay type: nucleic-acid assay
DNA [22] = assay: Binding affinity to Staphylococcus aureus genomic DNA assessed as change in entropy at 304 K; assay type: nucleic-acid assay
Candida tropicalis = assay: Antifungal activity against Candida tropicalis after 24 hrs by two fold serial dilution method; assay type: functional
Pseudomonas aeruginosa [23] = assay: Antibacterial activity against Pseudomonas aeruginosa ATCC 27853 after 24 hrs by two fold serial dilution method; assay type: functional; conditions: ATCC 27853, 24 h
Pseudomonas aeruginosa [24] = assay: Antibacterial activity against Pseudomonas aeruginosa after 24 hrs by two fold serial dilution method; assay type: functional
DNA [25] = assay: Binding affinity to Staphylococcus aureus genomic DNA assessed as gibbs free energy change at 294 K; assay type: nucleic-acid assay
DNA [26] = assay: Binding affinity to Staphylococcus aureus genomic DNA at pH 7.4 at 294 K by fluorescence quenching analysis; assay type: nucleic-acid assay
Staphylococcus aureus [27] = assay: Antibacterial activity against methicillin-resistant Staphylococcus aureus N315 after 24 hrs by two fold serial dilution method; assay type: functional; conditions: N315, 24 h

| SMILES | MIC80 (Candida albicans [2]) [µg/mL] | MIC80 (Candida parapsilosis) [µg/mL] | MIC (Klebsiella pneumoniae) [µg/mL] | MIC (Staphylococcus aureus [7]) [µg/mL] | MIC80 (Aspergillus fumigatus) [µg/mL] | MIC (Escherichia coli [11]) [µg/mL] | MIC (Acinetobacter baumannii) [µg/mL] | MIC (Staphylococcus aureus [14]) [µg/mL] | MIC (Staphylococcus aureus [15]) [µg/mL] | MIC (Escherichia coli [17]) [µg/mL] | MIC80 (Candida albicans [20]) [µg/mL] | MIC (Enterococcus faecalis) [µg/mL] | MIC80 (Candida tropicalis) [µg/mL] | MIC (Pseudomonas aeruginosa [23]) [µg/mL] | MIC (Pseudomonas aeruginosa [24]) [µg/mL] | MIC (Staphylococcus aureus [27]) [µg/mL] | other results |
| --- | --- | --- | --- | --- | --- | --- | --- | --- | --- | --- | --- | --- | --- | --- | --- | --- | --- |
| CCCCCCn1c(Cn2cnc3c(N4CCOCC4)ncnc32)nc2ccccc21 | 32 (≈ 76.3 µM) | 128 (≈ 305 µM) | 64 (≈ 153 µM) | 4 (≈ 9.53 µM) | 128 (≈ 305 µM) | 128 (≈ 305 µM) | 64 (≈ 153 µM) | 64 (≈ 153 µM) | 512 (≈ 1220 µM) | 8 (≈ 19.1 µM) | 32 (≈ 76.3 µM) | 128 (≈ 305 µM) | 64 (≈ 153 µM) | 16 (≈ 38.1 µM) | 64 (≈ 153 µM) | 16 (≈ 38.1 µM) | KSV (DNA [1]): 1.52 ×10⁴ L/mol; viability at 48 h [3]: > 85%; Ka (DNA [4]): 2.33 ×10⁴ L/mol; Ka (DNA [5]): 1.73 ×10⁴ L/mol; deltaG (DNA [6]): -6.09 kcal/mol; deltaG (DNA [8]): -6.13 kcal/mol; KSV (DNA [9]): 78.2 L/mol; KSV (DNA [10]): 1.21 ×10⁴ L/mol; Activity (DNA [12]): Active; K (DNA [13]): 4.92 ×10⁵ L/mol; Activity (HeLa): Non-Toxic; Ratio (Staphylococcus aureus [16]): 16; inhibition (DNA [18]): inactive; Ka (DNA [19]): 3.76 ×10⁴ L/mol; deltaH (DNA [21]): -7.12 kcal/mol; deltaS (DNA [22]): -13.6 J/mol.K; deltaG (DNA [25]): -6.16 kcal/mol; KSV (DNA [26]): 1.87 ×10⁴ L/mol |
| Fc1ccc(Cn2c(Cn3cnc4c(N5CCOCC5)ncnc43)nc3ccccc32)cc1 | 256 (≈ 577 µM) | 256 (≈ 577 µM) | 128 (≈ 289 µM) | 512 (≈ 1150 µM) | 256 (≈ 577 µM) | 128 (≈ 289 µM) | 256 (≈ 577 µM) | 64 (≈ 144 µM) | 256 (≈ 577 µM) | 256 (≈ 577 µM) | 128 (≈ 289 µM) | 256 (≈ 577 µM) | 64 (≈ 144 µM) | 64 (≈ 144 µM) | 256 (≈ 577 µM) | 256 (≈ 577 µM) | – |
| CCCCCCn1c(Cn2cnc3c(N4CCCC4)ncnc32)nc2ccccc21 | 64 (≈ 159 µM) | 32 (≈ 79.3 µM) | 128 (≈ 317 µM) | 32 (≈ 79.3 µM) | 128 (≈ 317 µM) | 256 (≈ 634 µM) | 64 (≈ 159 µM) | 64 (≈ 159 µM) | 512 (≈ 1270 µM) | 16 (≈ 39.6 µM) | 32 (≈ 79.3 µM) | 256 (≈ 634 µM) | 128 (≈ 317 µM) | 256 (≈ 634 µM) | 128 (≈ 317 µM) | 64 (≈ 159 µM) | – |
| Cc1nc2ccccc2n1CCn1cnc2c(N3CCOCC3)ncnc21 | 128 (≈ 352 µM) | 512 (≈ 1410 µM) | 256 (≈ 704 µM) | 256 (≈ 704 µM) | 256 (≈ 704 µM) | 512 (≈ 1410 µM) | 256 (≈ 704 µM) | 32 (≈ 88.1 µM) | 128 (≈ 352 µM) | 256 (≈ 704 µM) | 128 (≈ 352 µM) | 256 (≈ 704 µM) | 256 (≈ 704 µM) | 256 (≈ 704 µM) | 256 (≈ 704 µM) | 512 (≈ 1410 µM) | – |
| FC(F)(F)c1nc2ccccc2n1CCn1cnc2c(N3CCOCC3)ncnc21 | 256 (≈ 613 µM) | 128 (≈ 307 µM) | 64 (≈ 153 µM) | 32 (≈ 76.7 µM) | 256 (≈ 613 µM) | 32 (≈ 76.7 µM) | 64 (≈ 153 µM) | 64 (≈ 153 µM) | 128 (≈ 307 µM) | 128 (≈ 307 µM) | 256 (≈ 613 µM) | 64 (≈ 153 µM) | 256 (≈ 613 µM) | 64 (≈ 153 µM) | 128 (≈ 307 µM) | 256 (≈ 613 µM) | – |
| CCCCCCCCCCn1c(Cn2cnc3c(N4CCOCC4)ncnc32)nc2ccccc21 | 128 (≈ 269 µM) | 256 (≈ 538 µM) | 128 (≈ 269 µM) | 256 (≈ 538 µM) | 256 (≈ 538 µM) | 32 (≈ 67.3 µM) | 256 (≈ 538 µM) | 256 (≈ 538 µM) | 256 (≈ 538 µM) | 128 (≈ 269 µM) | 64 (≈ 135 µM) | 128 (≈ 269 µM) | 256 (≈ 538 µM) | 16 (≈ 33.6 µM) | 256 (≈ 538 µM) | 256 (≈ 538 µM) | – |
| c1nc(N2CCCCC2)c2nc[nH]c2n1 | 128 (≈ 630 µM) | 512 (≈ 2520 µM) | 256 (≈ 1260 µM) | 32 (≈ 157 µM) | 64 (≈ 315 µM) | 256 (≈ 1260 µM) | 128 (≈ 630 µM) | 512 (≈ 2520 µM) | 512 (≈ 2520 µM) | 256 (≈ 1260 µM) | 128 (≈ 630 µM) | 256 (≈ 1260 µM) | 256 (≈ 1260 µM) | 64 (≈ 315 µM) | 256 (≈ 1260 µM) | 512 (≈ 2520 µM) | – |
| c1ccc(Cn2c(Cn3cnc4c(N5CCOCC5)ncnc43)nc3ccccc32)cc1 | 256 (≈ 602 µM) | 512 (≈ 1200 µM) | 128 (≈ 301 µM) | 512 (≈ 1200 µM) | 512 (≈ 1200 µM) | 256 (≈ 602 µM) | 256 (≈ 602 µM) | 512 (≈ 1200 µM) | 256 (≈ 602 µM) | 256 (≈ 602 µM) | 256 (≈ 602 µM) | 128 (≈ 301 µM) | 128 (≈ 301 µM) | 128 (≈ 301 µM) | 256 (≈ 602 µM) | 256 (≈ 602 µM) | – |
